# Legend:
# Assay type in all cases: cell-based, human
# [1] = system: MCF10A mammary epithelial cells; assay: scratch wound haptotaxis induced by clustering the α6β4 integrin; settings: α6β4 integrin clustered
# Description: FIG. 9. Sdc1 ectodomain fragments and β4 dominant-negative mutant specific for Sdc1/α6β4/HER2 block MCF10A mammary epithelial cell migration. Haptotaxis of MCF10A human mammary epithelial cells induced by clustering the α6β4 integrin in a scratch wound assay is used to test the efficacy of inhibitors that target the Sdc1 mechanism. Cells are incubated either with entire recombinant syndecan ectodomains (Sdc1 ectodomain (S1ED) or Sdc4 ectodomain (S4ED) as a control), or an active fragment of mouse S1ED (S1ED^200-252) containing the inhibitory site.
# HaCat or MCF10A cells were grown to confluence on 48 well-plates were starved for 6 hr by serum deprivation followed by introduction of a scratch wound in the monolayer using 200 μl pipette tip. Cells were cultured an additional 18 hr in DMEM containing mAb 3E1 (10 μg/ml) and goat anti-mouse IgG (50 μg/ml), EGF (10 ng/ml) or HGF (20 ng/ml) to cause cell migration in the presence or absence of inhibitors. Images were acquired using a PlanApo 20 (0.75 numerical aperture) objective and a Photometrics CoolSnap ES camera on a Nikon Eclipse TE2000U microscopy system and wound closure quantified.
# The inventor used this assay to further truncate the S1ED recombinant proteins in order to find the smallest peptide that retains full inhibitory activity (e.g., SSTNHER2). The inventor tested mouse and human S1ED and find that they compete equally. […]
# MCF10A cells = assay: total cell number, CellTiterGLO assay; settings: single peptide, concentrations as high as 30 μM, 4 or 7 days
# Description: (§1) FIGS. 11A-F. SSTN treatment of normal (nontransformed) epithelial cells versus carcinoma (transformed) cells. Cells are plated for one day, then treated with either 3-30 μM […] (SSTN-I), 3-30 μM […] (SSTN-E), 3-30 μM SSTNHER2 (SSTN-H) or combinations of the three peptides, each at 10 μM to test their additive effect. […] The treatment times are chosen to reflect only modest effects of the peptides used singly, so that the more pronounced effect of peptides used in combination can still be observed. Treatment for longer times leads to significant cell death observed even with single peptides alone. (FIG. 11A) HaCat human keratinocytes, an example of a normal stratified epithelium, (FIG. 11B) UM-SCC47 cells, a squamous cell carcinoma derived from the tongue of a patient (a stratrified epithelium), (FIG. 11C) SCC25 cells, another squamous cell carcinoma from the tongue of a patient (FIG. 11D) MCF10A cells, a normal human breast epithelium, (FIG. 11E) MDA-MB-468 cells, a triple-negative (TN) breast carcinoma, and (FIG. 11F) SKBr3 cells, a HER2+ human breast carcinoma. Note that the “triple-negative” designation of the MDA-MB-468 carcinoma means the cells are negative for progesterone receptor, estrogen receptor and the HER2 kinase. Thus, they would not be expected to rely on HER2. Indeed, these cells are not affected by SSTNHER2, either alone or when combined with the other peptides. […] Nonetheless, the other three carcinomas are inhibited by SSTNHER2, and this is enhanced when SSTNHER2 is combined with the other SSTN peptides, leading to obvious cell death (e.g., the number of cells at the end of the experiment are less than at the beginning).
# (§2) Cells (5×10^4/well in a 24-well plate) were treated with activated TAT-peptide ([…]; (SEQ ID NO:18)), inactivated TAT-peptide ([…]; (SEQ ID NO:19)) or GST fusion protein (GST, GST-S1ED or GST-S4ED). Cells death was observed by trypan blue staining or Cell Tilter-GLO Cell Viability Assay (Promega).
# MDA-MB-468 cells = assay: total cell number, CellTiterGLO assay; settings: 4 or 7 days
# Description: as §1, §2
# SCC25 cells = assay: total cell number, CellTiterGLO assay; settings: 4 or 7 days
# Description: as §1, §2
# SKBr3 cells = assay: total cell number, CellTiterGLO assay; settings: 4 or 7 days
# Description: as §1, §2
# UM-SCC47 cells = assay: total cell number, CellTiterGLO assay; settings: 4 or 7 days
# Description: as §1, §2
substance,measurement,setting,value
"SSTNHER2: synthetic peptide of human Sdc1 ectodomain amino acids 210-240 (SEQ ID NO:3), inhibits Sdc1 coupling of HER2 to α6β4 integrin (DFTFETSGENTAVVAVEPDRRNQSPVDQGAT; listed as Homo sapiens)",haptotaxis (migration to close a scratch wound),[1],blocks haptotaxis
same,growth or survival,MCF10A cells,no effect
same,proliferation and survival,"MDA-MB-468 cells; MDA-MB-468 (triple-negative), single peptide 3-30 μM",no effect
same,"total cell number, combination with the other SSTN peptides","MDA-MB-468 cells; MDA-MB-468, each peptide at 10 μM",not affected
same,"total cell number, combination with the other SSTN peptides",SCC25 cells; each peptide at 10 μM,enhanced
same,proliferation and survival,SCC25 cells; single peptide 3-30 μM,target the proliferation and survival
same,"total cell number, combination with the other SSTN peptides",SKBr3 cells; each peptide at 10 μM,enhanced
same,proliferation and survival,SKBr3 cells; single peptide 3-30 μM,target the proliferation and survival
same,"total cell number, combination with the other SSTN peptides",UM-SCC47 cells; each peptide at 10 μM,enhanced
same,proliferation and survival,UM-SCC47 cells; single peptide 3-30 μM,target the proliferation and survival

# — US10010581B2, “Syndecan peptides and polypeptides and uses thereof” (Wisconsin Alumni Research Foundation, priority 2012, dated 2018)
